Measurements from PMC4581874 (PLoS ONE, 2015).
Entries after “also recorded” stand apart in the source; their conditions may differ.

Legend:
HCC827 cells = assay: HCC827 cell viability assay; type: cell-based; conditions: Homo sapiens, 72 h, read-out: HCC827 IC50 (anti-proliferative activity)
Method: HCC827 cells were purchased from the American Type Culture Collection (ATCC, Manassas, VA, USA). […] Human umbilical vein endothelial cells (HUVECs, ScienCell Research Laboratories, Carlsbad, CA, USA) were cultured in endothelial growth medium-2 (EGM-2; Lonza, Walkersville, MD, USA) from passages 3 to 6.
After a 24-hour incubation, the cells were treated with a series of test compound dilutions for 72 hours. Cell viability was assessed using EZ-Cytox (Daeil Lab Service, Seoul, South Korea) according to the manufacturer’s instructions.
Cells were incubated for 72 h with a range of concentrations of MKP101, and cell viability was measured using the WST-1 assay. […] Western blot analysis using antibodies to phosphorylated and total EGFR from a representative experiment is shown. Cells were incubated for 3 h at the indicated concentration. (C) Graph showing the relative intensities of the total and phosphorylated EGFR as determined by band densitometry. IC50, half-maximal inhibitory concentration.

EGFR = EGFR (Homo sapiens, UniProt P00533); assay: In vitro kinase assay, EGFR; type: biochemical; conditions: for inhibition at 1 µM: mean ± S.D., read-out: % inhibition at 1 μM, EGFR(h); for IC50: in vitro kinase assay, mean values
Method: All kinase assays were carried out using KinaseProfiler^TM and IC50 Profiler^TM (Millipore UK Ltd., Dundee, UK. Now Eurofins Scientific, Dundee, UK). All IC50 data were presented as the mean values.

VEGFR-2 = target: T1, VEGFR-2 (Homo sapiens, UniProt P35968); assay: In vitro kinase assay, VEGFR-2; type: biochemical; conditions: for IC50: in vitro kinase assay; for inhibition at 1 µM: mean ± S.D., read-out: % inhibition at 1 μM, VEGFR-2 (h)
T1 construct: purchased Millipore UK Ltd., Dundee, UK (now Eurofins Scientific); KinaseProfiler / IC50 Profiler service
T1 sequence (P35968 20-1356): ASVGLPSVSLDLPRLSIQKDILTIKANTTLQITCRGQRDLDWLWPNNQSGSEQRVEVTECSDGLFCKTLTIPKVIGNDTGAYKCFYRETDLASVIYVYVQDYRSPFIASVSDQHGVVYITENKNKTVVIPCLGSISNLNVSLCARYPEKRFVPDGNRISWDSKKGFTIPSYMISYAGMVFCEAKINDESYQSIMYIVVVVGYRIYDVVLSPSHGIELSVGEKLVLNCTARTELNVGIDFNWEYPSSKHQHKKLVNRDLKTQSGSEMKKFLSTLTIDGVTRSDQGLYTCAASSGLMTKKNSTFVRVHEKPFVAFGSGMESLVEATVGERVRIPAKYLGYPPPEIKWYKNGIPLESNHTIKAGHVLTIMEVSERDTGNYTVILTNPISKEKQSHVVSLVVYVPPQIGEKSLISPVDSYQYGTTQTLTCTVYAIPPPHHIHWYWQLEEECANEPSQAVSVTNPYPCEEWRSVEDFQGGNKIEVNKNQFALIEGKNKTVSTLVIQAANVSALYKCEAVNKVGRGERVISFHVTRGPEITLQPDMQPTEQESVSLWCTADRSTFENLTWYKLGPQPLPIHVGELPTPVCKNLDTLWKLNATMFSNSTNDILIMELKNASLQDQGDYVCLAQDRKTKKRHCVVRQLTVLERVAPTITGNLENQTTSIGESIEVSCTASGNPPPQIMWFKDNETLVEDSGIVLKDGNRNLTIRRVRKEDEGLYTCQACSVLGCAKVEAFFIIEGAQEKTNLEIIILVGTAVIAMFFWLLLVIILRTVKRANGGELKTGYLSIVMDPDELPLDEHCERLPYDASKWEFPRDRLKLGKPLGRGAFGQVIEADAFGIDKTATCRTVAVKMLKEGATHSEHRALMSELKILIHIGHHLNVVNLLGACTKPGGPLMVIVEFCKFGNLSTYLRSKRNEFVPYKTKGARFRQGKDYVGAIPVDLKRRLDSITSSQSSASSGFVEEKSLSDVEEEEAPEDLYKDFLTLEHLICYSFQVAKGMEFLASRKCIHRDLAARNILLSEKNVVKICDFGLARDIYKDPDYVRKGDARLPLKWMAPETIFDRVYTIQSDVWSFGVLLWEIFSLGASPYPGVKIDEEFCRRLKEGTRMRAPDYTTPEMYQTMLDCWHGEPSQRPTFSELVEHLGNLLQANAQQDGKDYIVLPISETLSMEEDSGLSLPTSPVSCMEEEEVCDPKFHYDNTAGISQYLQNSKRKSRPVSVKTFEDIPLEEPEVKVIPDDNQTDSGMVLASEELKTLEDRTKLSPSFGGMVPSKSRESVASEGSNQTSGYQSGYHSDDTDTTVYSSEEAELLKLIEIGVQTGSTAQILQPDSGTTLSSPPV
Method: (§1) All kinase assays were carried out using KinaseProfiler^TM and IC50 Profiler^TM (Millipore UK Ltd., Dundee, UK. Now Eurofins Scientific, Dundee, UK). All IC50 data were presented as the mean values. The Curves obtained to determine IC50 values were shown in Supporting Information (S1 Fig).

VEGFR-1 = target: T2, VEGFR-1 (Homo sapiens, UniProt P17948); assay: In vitro kinase assay, VEGFR-1; type: biochemical; conditions: 1 μM, mean ± S.D.; read-out: % inhibition at 1 μM, VEGFR-1 (h)
T2 construct: purchased Millipore UK Ltd., Dundee, UK (now Eurofins Scientific); KinaseProfiler / IC50 Profiler service
Method: as §1

PDGFRβ = target: T3, PDGFRβ (Homo sapiens, UniProt P09619); assay: In vitro kinase assay, PDGFRβ; type: biochemical; conditions: 1 μM, mean ± S.D.; read-out: % inhibition at 1 μM, PDGFRβ (h)
T3 construct: purchased Millipore UK Ltd., Dundee, UK (now Eurofins Scientific); KinaseProfiler / IC50 Profiler service
Method: as §1

FGFR3 = target: T4, FGFR3 (Homo sapiens, UniProt P22607); assay: In vitro kinase assay, FGFR3; type: biochemical; conditions: 1 μM, mean ± S.D.; read-out: % inhibition at 1 μM, FGFR3 (h)
T4 construct: purchased Millipore UK Ltd., Dundee, UK (now Eurofins Scientific); KinaseProfiler / IC50 Profiler service
T4 sequence (P22607 23-806): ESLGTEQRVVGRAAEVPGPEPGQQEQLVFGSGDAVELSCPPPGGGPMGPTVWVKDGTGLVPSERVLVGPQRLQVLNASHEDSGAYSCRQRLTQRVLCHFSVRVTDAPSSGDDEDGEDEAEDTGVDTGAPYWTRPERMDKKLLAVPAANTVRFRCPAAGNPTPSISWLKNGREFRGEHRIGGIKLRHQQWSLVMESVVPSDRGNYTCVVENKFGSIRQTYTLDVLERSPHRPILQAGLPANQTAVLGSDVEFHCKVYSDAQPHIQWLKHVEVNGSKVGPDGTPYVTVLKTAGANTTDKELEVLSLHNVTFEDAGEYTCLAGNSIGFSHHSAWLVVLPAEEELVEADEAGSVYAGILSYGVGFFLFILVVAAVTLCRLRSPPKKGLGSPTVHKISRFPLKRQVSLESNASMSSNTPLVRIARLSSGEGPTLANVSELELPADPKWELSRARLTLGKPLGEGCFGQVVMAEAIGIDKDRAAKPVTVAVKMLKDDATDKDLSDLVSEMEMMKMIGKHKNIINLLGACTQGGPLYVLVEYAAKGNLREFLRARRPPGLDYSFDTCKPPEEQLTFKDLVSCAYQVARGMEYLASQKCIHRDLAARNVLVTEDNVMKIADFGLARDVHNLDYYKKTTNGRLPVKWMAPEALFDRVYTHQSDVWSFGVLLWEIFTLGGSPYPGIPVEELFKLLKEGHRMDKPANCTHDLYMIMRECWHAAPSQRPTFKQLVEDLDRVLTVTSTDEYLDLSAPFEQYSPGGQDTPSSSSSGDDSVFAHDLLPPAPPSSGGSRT
Method: as §1

FGFR1 = target: T5, FGFR1 (Homo sapiens, UniProt P11362); assay: In vitro kinase assay, FGFR1; type: biochemical; conditions: 1 μM, mean ± S.D.; read-out: % inhibition at 1 μM, FGFR1 (h)
T5 construct: purchased Millipore UK Ltd., Dundee, UK (now Eurofins Scientific); KinaseProfiler / IC50 Profiler service
T5 sequence (P11362 22-822): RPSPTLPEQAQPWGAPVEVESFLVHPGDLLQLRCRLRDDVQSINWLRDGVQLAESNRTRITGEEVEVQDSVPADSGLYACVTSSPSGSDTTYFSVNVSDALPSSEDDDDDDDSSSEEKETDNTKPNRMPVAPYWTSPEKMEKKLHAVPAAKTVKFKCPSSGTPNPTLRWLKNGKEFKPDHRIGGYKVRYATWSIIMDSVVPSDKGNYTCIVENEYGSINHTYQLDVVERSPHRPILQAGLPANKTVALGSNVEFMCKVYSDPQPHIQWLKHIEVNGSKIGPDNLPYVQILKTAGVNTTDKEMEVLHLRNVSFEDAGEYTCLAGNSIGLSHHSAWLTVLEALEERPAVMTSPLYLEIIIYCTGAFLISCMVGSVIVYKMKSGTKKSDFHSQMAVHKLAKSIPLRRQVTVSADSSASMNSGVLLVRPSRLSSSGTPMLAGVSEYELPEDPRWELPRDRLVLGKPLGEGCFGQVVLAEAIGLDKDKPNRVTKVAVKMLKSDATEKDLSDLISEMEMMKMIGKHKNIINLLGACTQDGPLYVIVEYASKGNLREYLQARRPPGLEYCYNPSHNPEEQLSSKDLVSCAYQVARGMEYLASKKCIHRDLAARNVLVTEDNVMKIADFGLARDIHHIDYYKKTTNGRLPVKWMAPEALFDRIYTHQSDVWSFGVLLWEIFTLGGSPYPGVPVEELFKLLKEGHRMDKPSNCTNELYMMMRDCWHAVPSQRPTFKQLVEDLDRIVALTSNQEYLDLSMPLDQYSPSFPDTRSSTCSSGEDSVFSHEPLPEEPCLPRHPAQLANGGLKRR
Method: as §1

PDGFRα = target: T6, PDGFRα (Homo sapiens, UniProt P16234); assay: In vitro kinase assay, PDGFRα; type: biochemical; conditions: 1 μM, mean ± S.D.; read-out: % inhibition at 1 μM, PDGFRα (h)
T6 construct: purchased Millipore UK Ltd., Dundee, UK (now Eurofins Scientific); KinaseProfiler / IC50 Profiler service
Method: as §1

VEGFR-3 = target: T7, VEGFR-3 (Homo sapiens, UniProt P35916); assay: In vitro kinase assay, VEGFR-3; type: biochemical; conditions: 1 μM, mean ± S.D.; read-out: % inhibition at 1 μM, VEGFR-3 (h)
T7 construct: purchased Millipore UK Ltd., Dundee, UK (now Eurofins Scientific); KinaseProfiler / IC50 Profiler service
Method: as §1

cKit = target: T8, cKit (Homo sapiens, UniProt P10721); assay: In vitro kinase assay, cKit; type: biochemical; conditions: 1 μM, mean ± S.D.; read-out: % inhibition at 1 μM, cKit(h)
T8 construct: purchased Millipore UK Ltd., Dundee, UK (now Eurofins Scientific); KinaseProfiler / IC50 Profiler service
T8 sequence (P10721 26-976): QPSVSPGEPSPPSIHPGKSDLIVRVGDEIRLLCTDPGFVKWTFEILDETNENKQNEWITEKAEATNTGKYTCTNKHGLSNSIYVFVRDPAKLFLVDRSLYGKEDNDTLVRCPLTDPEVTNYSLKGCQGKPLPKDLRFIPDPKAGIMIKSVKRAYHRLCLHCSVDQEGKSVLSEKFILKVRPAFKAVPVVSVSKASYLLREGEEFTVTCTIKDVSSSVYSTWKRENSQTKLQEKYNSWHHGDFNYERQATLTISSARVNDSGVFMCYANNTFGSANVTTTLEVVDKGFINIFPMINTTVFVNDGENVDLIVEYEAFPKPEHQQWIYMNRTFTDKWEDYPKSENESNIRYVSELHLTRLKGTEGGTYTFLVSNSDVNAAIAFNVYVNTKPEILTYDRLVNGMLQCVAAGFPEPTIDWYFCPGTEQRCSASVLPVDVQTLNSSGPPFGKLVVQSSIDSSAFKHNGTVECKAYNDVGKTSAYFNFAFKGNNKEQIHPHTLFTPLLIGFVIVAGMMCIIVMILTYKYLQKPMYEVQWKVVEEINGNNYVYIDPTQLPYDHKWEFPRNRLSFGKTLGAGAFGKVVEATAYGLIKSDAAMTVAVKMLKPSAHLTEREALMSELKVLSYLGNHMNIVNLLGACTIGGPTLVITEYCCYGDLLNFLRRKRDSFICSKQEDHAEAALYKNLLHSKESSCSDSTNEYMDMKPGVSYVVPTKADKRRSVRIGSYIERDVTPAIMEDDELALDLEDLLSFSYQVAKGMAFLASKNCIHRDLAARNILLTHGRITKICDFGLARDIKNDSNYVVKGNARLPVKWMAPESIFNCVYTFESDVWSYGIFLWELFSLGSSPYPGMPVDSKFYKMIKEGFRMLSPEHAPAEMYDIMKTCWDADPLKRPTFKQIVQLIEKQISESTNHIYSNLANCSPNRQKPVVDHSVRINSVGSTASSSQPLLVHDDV
Method: as §1

EGFR (L858R) = target: T9, EGFR (L858R) (Homo sapiens, UniProt P00533, L858R); assay: In vitro kinase assay, EGFR (L858R); type: biochemical; conditions: 1 μM, mean ± S.D.; read-out: % inhibition at 1 μM, EGFR(L858R)(h)
T9 construct: purchased Millipore UK Ltd., Dundee, UK (now Eurofins Scientific); KinaseProfiler / IC50 Profiler service
T9 sequence (P00533 25-1210 L858R): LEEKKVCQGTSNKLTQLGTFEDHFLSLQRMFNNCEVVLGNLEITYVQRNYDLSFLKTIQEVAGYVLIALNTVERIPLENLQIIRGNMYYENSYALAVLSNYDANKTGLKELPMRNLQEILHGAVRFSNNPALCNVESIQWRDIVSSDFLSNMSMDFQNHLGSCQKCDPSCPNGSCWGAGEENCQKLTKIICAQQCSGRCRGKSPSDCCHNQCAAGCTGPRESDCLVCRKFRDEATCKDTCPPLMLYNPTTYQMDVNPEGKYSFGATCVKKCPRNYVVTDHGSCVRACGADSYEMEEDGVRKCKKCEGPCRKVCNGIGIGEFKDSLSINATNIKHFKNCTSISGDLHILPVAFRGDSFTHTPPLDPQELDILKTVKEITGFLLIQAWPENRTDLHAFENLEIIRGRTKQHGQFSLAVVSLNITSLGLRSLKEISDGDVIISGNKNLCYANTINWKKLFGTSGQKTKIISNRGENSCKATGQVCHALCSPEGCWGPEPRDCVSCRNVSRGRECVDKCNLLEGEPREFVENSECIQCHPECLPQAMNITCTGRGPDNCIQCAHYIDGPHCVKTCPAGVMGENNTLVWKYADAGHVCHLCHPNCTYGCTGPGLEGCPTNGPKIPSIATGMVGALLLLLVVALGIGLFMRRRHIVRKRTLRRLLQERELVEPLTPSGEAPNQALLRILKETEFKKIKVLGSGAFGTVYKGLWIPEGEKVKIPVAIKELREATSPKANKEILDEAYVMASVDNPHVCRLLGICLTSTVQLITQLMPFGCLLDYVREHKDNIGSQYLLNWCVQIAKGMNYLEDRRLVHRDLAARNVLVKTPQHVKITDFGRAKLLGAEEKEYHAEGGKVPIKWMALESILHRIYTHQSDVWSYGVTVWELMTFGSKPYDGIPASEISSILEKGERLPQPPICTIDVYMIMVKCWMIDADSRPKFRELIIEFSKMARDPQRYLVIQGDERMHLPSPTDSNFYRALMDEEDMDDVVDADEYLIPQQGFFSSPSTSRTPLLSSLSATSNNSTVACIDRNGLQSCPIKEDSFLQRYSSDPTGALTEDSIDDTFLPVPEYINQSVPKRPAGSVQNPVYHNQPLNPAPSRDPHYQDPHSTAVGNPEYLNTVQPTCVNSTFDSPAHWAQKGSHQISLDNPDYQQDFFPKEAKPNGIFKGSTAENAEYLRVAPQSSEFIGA
Method: as §1

HUVECs [1] = assay: HUVEC viability assay (cytotoxicity); type: cell-based, human; conditions: 24 hours
Method: HCC827 cells were purchased from the American Type Culture Collection (ATCC, Manassas, VA, USA). Cells were grown in RPMI 1640 (Welgene Inc., Daegu, Republic of Korea) supplemented with 10% fetal bovine serum (FBS) (Welgene Inc.) and 1% penicillin-streptomycin (Gibco®, Life Technologies, Carlsbad, CA, USA) in a humidified 5% CO2 atmosphere at 37°C. Human umbilical vein endothelial cells (HUVECs, ScienCell Research Laboratories, Carlsbad, CA, USA) were cultured in endothelial growth medium-2 (EGM-2; Lonza, Walkersville, MD, USA) from passages 3 to 6.
For the HUVEC viability assay, HUVECs were treated with phosphate-buffered saline (PBS) or the indicated concentrations of VEGF inhibitors in EGM-2 medium for 24 hours. After the cells were washed with PBS, they were counted using an inverted light microscope (Nikon Eclipse Ti-U; Nikon Corp., Tokyo, Japan) in 5 random fields from each well.

HUVECs [2] = assay: VEGF-induced tube formation assay; type: cell-based, human; conditions: VEGF 50 ng/mL, compound 1 μg/mL
Method: For analyzing of the antagonistic response to VEGF, tube formation, scratch wound migration, and cell proliferation assays were performed after the exposure of HUVECs to 50 ng/mL VEGF-A (R&D Systems, Minneapolis, MN), which induced a significant angiogenic response. For the cell proliferation assays, cells were incubated overnight in endothelial basal media (EBM; Lonza, Walkersville, MD, USA) containing 0.5% FBS or supplemented with VEGF-A and/or VEGF inhibitors. The cells were washed with PBS and counted in 4 random microscope fields. The tube formation assay was performed by seeding cells on Matrigel-coated plates (BD Bioscience, Bedford, MA, USA) and incubating in EBM containing 0.5% FBS or supplemented with VEGF-A and/or VEGF inhibitors. After overnight incubation, tubule networks were quantified by measuring the tubule length in 4 random microscope fields. For the analysis of scratch wound migration, confluent cell monolayers grown on 6-well plates were scratched using a micropipette tip. […] Cell migration was observed by optical microscopy and quantified by measuring the number of cells that had migrated from the wound edges.
In (A) and (B), the number of cells was expressed as the fold change with respect to the number of cells seeded at day 0. […]

SMILES	inhibition at 1 µM (EGFR) [%]	IC50 (EGFR) [nM]	IC50 (VEGFR-2) [nM]	also measured
Cc1ccc(Nc2nccc(N(C)c3ccc4[nH]cc(C)c4c3)n2)cc1S(N)(=O)=O [MKP102]	93 ± 2	55		IC50 (HCC827 cells): 197 nM
Cc1cc2cc(N(C)c3ccnc(Nc4ccc(C)c(S(N)(=O)=O)c4)n3)ccc2[nH]1 [MKP103]	42 ± 4			IC50 (HCC827 cells): 1630 nM
Cc1ccc(Nc2nccc(N(C)c3ccc4c(ccn4C)c3)n2)cc1S(N)(=O)=O [MKP104]	20 ± 4			IC50 (HCC827 cells): 2680 nM
Cc1ccc(Nc2nccc(N(C)c3ccc4cc[nH]c4c3)n2)cc1S(N)(=O)=O [MKP105]	47 ± 2			IC50 (HCC827 cells): 1460 nM
c1cc(Nc2ccc3[nH]ccc3c2)nc(Nc2ccc(OCCN3CCOCC3)cc2)n1 [MKP106]		210	20	
c1cc(Nc2ccc3[nH]ccc3c2)nc(Nc2ccc(OCCCCN3CCOCC3)cc2)n1 [MKP107]		178	130	
CN(c1ccc2[nH]ccc2c1)c1ccnc(Nc2ccc(OCCCCN3CCOCC3)cc2)n1 [MKP108]		200	26	
c1cc(Nc2ccc3[nH]ccc3c2)nc(Nc2ccc(N3CCOCC3)cc2)n1 [MKP109]		240	50	
c1cc(Nc2nccc(Nc3ccc4[nH]ccc4c3)n2)cc(N2CCOCC2)c1 [MKP110]		180	30	
Cn1ccc2cc(Nc3ccnc(Nc4ccc(N5CCOCC5)cc4)n3)ccc21 [MKP111]		2240	1570	
CN(c1ccc2c(ccn2C)c1)c1ccnc(Nc2ccc(N3CCOCC3)cc2)n1 [MKP112]		10100	360	
Fc1cc(Nc2nccc(Nc3ccc4[nH]ccc4c3)n2)ccc1N1CCOCC1 [MKP113]		1630	30	
Fc1cc(Nc2nccc(Nc3ccc4[nH]ccc4c3)n2)cc(N2CCOCC2)c1 [MKP114]		610	41	
COc1ccc(Nc2nccc(Nc3ccc4[nH]ccc4c3)n2)cc1N1CCOCC1 [MKP115]		56	10	
COc1cc(Nc2nccc(Nc3ccc4[nH]ccc4c3)n2)cc(N2CCOCC2)c1 [MKP116]		41	20	
COc1cc(Nc2nccc(N(C)c3ccc4[nH]ccc4c3)n2)cc(N2CCOCC2)c1 [MKP117]		33	17	
c1nc(Nc2ccc(N3CCOCC3)cc2)cc(Nc2ccc3[nH]ccc3c2)n1 [MKP118]		7	1200	
CN(c1ccc2[nH]ccc2c1)c1cc(Nc2ccc(N3CCOCC3)cc2)ncn1 [MKP119]		35	> 3000	
c1nc(Nc2ccc(N3CCOCC3)cc2)cc(Oc2ccc3[nH]ccc3c2)n1 [MKP120]		10	32	
COc1ccc(Nc2cc(Oc3ccc4[nH]ccc4c3)ncn2)cc1N1CCOCC1 [MKP121]	94 ± 2	31	30	inhibition at 1 µM (VEGFR-1): 99 ± 2%; inhibition at 1 µM (PDGFRβ): 48%; inhibition at 1 µM (FGFR3): 13 ± 4%; inhibition at 1 µM (FGFR1): 29 ± 5%; inhibition at 1 µM (PDGFRα): 37 ± 1%; inhibition at 1 µM (VEGFR-3): 98%; inhibition at 1 µM (cKit): 70 ± 3%; inhibition at 1 µM (VEGFR-2): 96%; inhibition at 1 µM (EGFR (L858R)): 98%
Cc1ccc(Nc2nccc(Oc3ccc4[nH]ccc4c3)n2)cc1S(N)(=O)=O [MKP122]	35 ± 2	2040	20	inhibition at 1 µM (VEGFR-1): 100%; inhibition at 1 µM (PDGFRβ): 92%; inhibition at 1 µM (FGFR3): 65 ± 4%; inhibition at 1 µM (FGFR1): 83%; inhibition at 1 µM (PDGFRα): 87 ± 1%; inhibition at 1 µM (VEGFR-3): 100%; inhibition at 1 µM (cKit): 99 ± 1%; inhibition at 1 µM (VEGFR-2): 96%; inhibition at 1 µM (EGFR (L858R)): 66%
Cc1ccc(Nc2cc(Oc3ccc4[nH]ccc4c3)ncn2)cc1S(N)(=O)=O [MKP123]	100	18	45	inhibition at 1 µM (VEGFR-1): 99 ± 1%; inhibition at 1 µM (PDGFRβ): 44 ± 3%; inhibition at 1 µM (FGFR3): 21 ± 2%; inhibition at 1 µM (FGFR1): 20 ± 6%; inhibition at 1 µM (PDGFRα): 30 ± 3%; inhibition at 1 µM (VEGFR-3): 100%; inhibition at 1 µM (cKit): 53 ± 9%; inhibition at 1 µM (VEGFR-2): 97%; inhibition at 1 µM (EGFR (L858R)): 99 ± 1%
Cc1ccc(Nc2nccc(N(C)c3ccc4c(C)n(C)nc4c3)n2)cc1S(N)(=O)=O [Pazopanib, 5-[[4-[(2,3-dimethyl-2H-indazol-6-yl)methylamino]-2-pyrimidinyl]amino]-2-methyl-benzenesulfonamide, reference compound]				Cytotoxicity in HUVECs (HUVECs [1]; 1 μg/mL): No cytotoxicity was observed; Cytotoxicity in HUVECs (HUVECs [1]; 5 and 10 μg/mL): significant endothelial cytotoxicity; Effect on VEGF-induced increase in tube formation (HUVECs [2]): significantly inhibited; EGFR inhibition (in words) (EGFR): did not inhibit EGFR; also recorded: no inhibitory effect against EGFR
